Measured values taken from patent US6028083A, “Esters of (+)-α-(2,3-dimethoxyphenyl)-1-[2-(4-fluorophenyl) ethyl]-4-piperidinemethanol” (Hoechst Marion Roussel, Inc., priority 1997, dated 2000).

Columns and labels:
myocardial tissue = conditions: no source or data given; cited from earlier work
[1] = system: dopamine efflux in the medial prefrontal cortex; conditions: European Journal of Pharmacology 273: 273-279 (1995); cited from earlier work
platelets = conditions: U.S. Pat. No. 5,561,144, cited from earlier work
[2] = system: PPI (prepulse inhibition); conditions: Psychopharmacology 124: 107-116 (1996); cited from earlier work
[3] = Chronic Mild Stress Model of Depression (CMS), consumption of 1% sucrose solution; format: in vivo, Male Wistar rats
Description: CMS uses mild stressors, such as food and water deprivation, small temperature changes, changes of cage mates, etc. Over a period of weeks of exposure to the mild stressors, the animals gradually reduce their consumption of a highly preferred sucrose solution which persists (in untreated animals) for several weeks following the cessation of stress. This decreased sensitivity to reward (the sucrose solution) reflects anhedonia, a symptom of a Major Depressive Episode (see for example, Behavioral Pharmacol.5: Suppl. 1, p. 86 (1994) where lithium, carbamazepine and ketoconazole were evaluated in CMS; Psychopharmacology 93:358-364 (1987) where a tricyclic antidepressant was evaluated in CMS; Behavioral Pharmacology:5:344-350 (1994) where a catechol-O-methyl transferase inhibitor was evaluated in CMS).
Male Wistar rats were brought into the laboratory two months before the start of the experiment at which time they weighed approximately 300 grams. Except as described below, the animals were singly housed, with food a water freely available, and maintained on a 12 hour light/dark cycle (lights on at 8 AM) at a temperature of 22±° C.
The animals were first trained to consume a 1% sucrose solution; training consisted of eight 1 hour baseline tests in which sucrose was presented, in the home cage, following 14 hours food and water deprivation; intake was measured by weighing pre-weighed bottles containing the sucrose solution at the end of the test. Subsequently, sucrose consumption was monitored, under similar conditions, at weekly intervals throughout the whole experiment.
On the basis of their sucrose intakes in the final baseline test, the animals were divided into two matched groups. One group of animals was subjected to a chronic mild stress procedure for a period of 9 consecutive weeks. Each week of stress regime consisted of: two periods of food or water deprivation (12 and 14 hour), two periods of 45 degree cage tilt (12 and 14 h), two periods of intermittent overnight illumination (lights on and off every 2 hours), two 14 hour periods of soiled cage (200 ml water in sawdust bedding), two 14 hour periods of paired housing, two 14 hour periods of low intensity stroboscopic illumination (150 flashes/min). Stressors were applied continuously throughout the day and night, and scheduled randomly. […] They were deprived of food and water for the 14 hours preceding each sucrose test, but otherwise food and water were freely available in the home cage. […] All drug injections were in a volume of 1 ml/kg body weight. Drugs were administered at 10 AM and sucrose tests were carried out 24 hours following the last drug treatment. After five weeks, the treatments were terminated and after one week of withdrawal a final sucrose test was carried out. Stress was continued throughout the period of treatment and withdrawal.
Results were analyzed by multiple analysis of variance, followed by Fisher's LSD test for post hoc comparisons of means.

5HT2A receptor [4] = conditions: cited from earlier work
5HT2A receptor [5] = test: Antagonism of DOI-induced behaviors in rats; format: in vivo, Male Sprague-Dawley rats; conditions: single i.m. injection in sesame oil, 120 mg/kg equivalent to MDL 100,907, DOI 3.0 mg/kg i.p.
Description: The compound of the present invention used in this test was (+)-α-(2,3-Dimethyoxyphenyl)-1-[2-(4-fluorophenyl)ethyl]-4-piperidinemethanol decanoate--Example 4 herein.-- The 5-HT2A/2C agonist (±)-DOI HCl (1-(2,5-dimethoxy-4-iodophenyl)-2-aminopropane hydrochloride) induces several quantifiable behaviors in rats. These behaviors include "shakes" (a quick head and body shake, a.k.a. wet dog shakes), "forepaw tapping" (rapid forepaw treading) and "skin-jerks" (paraspinal muscle contractions or dorsal skin-shrugging).
Male Sprague-Dawley rats (180±50 g) were housed seven per cage and allowed 1 week to acclimate to the vivarium. Food and water were freely available. The temperature and light cycle (12 h on-12 h off)were automatically maintained. Individual rats were tested once. Each testing group contained seven animals. Experiments took place in the vivarium room where the animals were housed.
Vehicle control animals were injected with sesame oil alone. (±)-DOI HCl (3.0 mg/kg, 1 mL/kg body weight) was dissolved in distilled water with the aid an ultrasonic bath, and injected intraperitoneally on appropriate testing days.
(+)-α-(2,3-Dimethyoxyphenyl)-1-[2-(4-fluorophenyl)ethyl]-4-piperidinementhanol decanoate-treated rats were tested for antagonism of DOI-induced behaviors 1, 5, 7, 14, 21, 28 and 40 days after the single (+)-α-(2,3-Dimethyoxyphenyl)-1-[2-(4-fluorophenyl)ethyl]-4-piperidinementhanol decanoate intramuscular injection. Each rat was tested once. Immediately after DOI injection rats were placed under inverted clear plastic boxes (28 L×25 W×25 H cm) which were arranged on top of clean absorbent paper. Rats were continuously watched by trained observers (blind to treatment) for 30 minutes for the occurrence of DOI-induced behaviors (shakes, skin-jerks and forepaw tapping bouts) and then returned to their home cages. Rats were later used for pharmacokinetic studies. The frequencies of DOI-induced behaviors were recorded and then summed to provide a single behavioral score for each animal.
The mean and standard error of the behavioral scores of each group was determined. […]

in vivo = test: in vivo; set-up: species or system male Wistar rats; conditions: rat, im, 120 mg/kg
Description: Rats are anesthetized with a lethal i.p. dose of nembutal and blood collected at 3 and 6 hours, and various days post-dose (n=5 for each timepoint) in heparinized vacutainers. Blood samples are centrifuged for 30 minutes at 5 C and at approximately 2700 rpm. Plasma is removed and stored at -20° C. until assay. The plasma samples are analyzed by an appropriate HPLC method. Brains will also be collected at the above timepoints and stored at -80° C. until analyzed by the appropriate HPLC method.

5HT2A receptor [6] = conditions: literature (Pranzatelli 1990; Wettstein et al. 1996); cited from earlier work
[7] = MDL 100,907 0.002, 0.02 and 0.2 mg/kg orally
[8] = MDL 100,907 0.002, 0.02 and 0.2 mg/kg orally, NS
[9] = MDL 100,907 0.02 and 0.2 mg/kg orally
[10] = imipramine 10 mg/kg ip daily, five weeks

Question: What does the source list for COc1cccc([C@H](O)C2CCN(CCc3ccc(F)cc3)CC2)c1OC [MDL 100,907, (+)-α-(2,3-dimethoxyphenyl)-1-[2-(4-fluorophenyl)ethyl]-4-piperidinemethanol]?
Answer: anti-arrhythmic class (Vaughan Williams) (myocardial tissue): Class III anti-arrhythmic activity; effect on action potential of myocardial tissue (myocardial tissue): increases the duration of the action potential of myocardial tissue; influence on dopamine efflux in the medial prefrontal cortex [1]: tonic inhibitory influence on dopamine efflux; effect on rate at which platelets aggregate (platelets): decreases the rate at which platelets aggregate; prevention of acute thrombosis (platelets; especially of the coronary arteries): effective in the prevention of acute thrombosis; effect on disrupted PPI [2]: restore disrupted PPI; effect on sucrose intake throughout the whole treatment period ([3]; MDL 100,907 0.002 mg/kg orally): no significant effect; sucrose intake in stressed animals vs Week 0 ([3]; MDL 100,907 0.02 mg/kg (after two weeks) and 0.2 mg/kg (after three weeks) orally): significantly increased from initial scores; sucrose intake in stressed animals, Treatment effect F(3,168) [3, 7]: 22.567; sucrose intake in stressed animals, Treatment effect p [3, 7]: < 0.001; sucrose intake in stressed animals, Treatment x Weeks interaction F(15,158) [3, 7]: 1.559; sucrose intake in stressed animals, Treatment x Weeks interaction p [3, 7]: 0.05; effect on sucrose intake in control animals ([3]; MDL 100,907 0.002, 0.02 and 0.2 mg/kg orally daily, five weeks): no significant effect; sucrose intake in control animals, Treatment effect F(3,168) [3, 8]: 0.821; sucrose intake in control animals, Treatment x Weeks interaction F(15,168) [3, 8]: 0.499; sucrose intake of stressed animals vs vehicle-treated controls at Week 5 [3, 9]: comparable to that of vehicle-treated controls; sucrose intake of stressed animals vs vehicle-treated stressed animals at Week 5 [3, 9]: significantly higher than that of vehicle-treated stressed animals; sucrose intake one week after withdrawal ([3]; MDL 100,907 all doses, control and stressed animals): not significantly changed; effect on CMS-induced deficit in sucrose intake in stressed animals ([3]; MDL 100,907 orally daily, five weeks): gradually reversed the CMS-induced deficit in sucrose intake; 5HT2A receptor antagonist potency (5HT2A receptor [4]): potent 5HT2A receptor antagonist

Question: For CN(C)CCCN1c2ccccc2CCc2ccccc21 [Imipramine], which “sucrose intake in stressed animals, F(1,84)” value ([3]; imipramine 10 mg/kg ip daily) is on record?
Answer: Its value is 16.776.

Question: What about the “sucrose intake in stressed animals, p (treatment)” value ([3]; imipramine 10 mg/kg ip daily) of the same compound?
Answer: Its value is < 0.001.

Question: What about the “sucrose intake of drug-treated stressed animals vs drug- and saline-treated controls” value ([3]; imipramine 10 mg/kg ip daily, after five weeks of treatment) of the same compound?
Answer: Its value is “no significant differences”.

Question: What about the “effect on sucrose intake in control animals” value [3, 10] of the same compound?
Answer: Its value is “no significant effect”.

Question: What about the “effect on sucrose intake in stressed animals” value [3, 10] of the same compound?
Answer: Its value is “gradual increase of sucrose intake”.

Question: And the “sucrose intake in stressed animals after withdrawal” value ([3]; imipramine 10 mg/kg ip daily, one week after withdrawal)?
Answer: The value was “maintained at similar level”.

Question: What about the “sucrose intake in control animals, F(1,84)” value ([3]; imipramine 10 mg/kg ip daily, NS) of the same compound?
Answer: The value was 0.364.

Question: For CCCCCCCCCC(=O)O[C@@H](c1cccc(OC)c1OC)C1CCN(CCc2ccc(F)cc2)CC1 [Example 4, (+)-α-(2,3-Dimethyoxyphenyl)-1-[2-(4-fluorophenyl)ethyl]-4-piperidinementhanol decanoate], which “antagonism of DOI-induced behavior at day 40” value (5HT2A receptor [5]) is on record?
Answer: The value was “no longer significant”.

Question: What about the “duration of significant antagonism of DOI-induced behavior” value (5HT2A receptor [5]; p<=0.05) of the same compound?
Answer: The value was 28 days.

Question: What about the “antagonism of DOI-induced behavior” value (5HT2A receptor [5]; through day 28) of the same compound?
Answer: The value was “Significantly antagonized DOI-induced behavior”.

Question: And the concentration at 3 h (in vivo)?
Answer: Its concentration at 3 h is 54.2 ± 13.3 ng/mL.

Question: What about the concentration at 6 h (in vivo) of the same compound?
Answer: The concentration at 6 h was 53.8 ± 17.1 ng/mL.

Question: What about the concentration at 24 h (in vivo) of the same compound?
Answer: Its concentration at 24 h is 54.1 ± 18 ng/mL.

Question: And the concentration at 48 h (in vivo)?
Answer: The concentration at 48 h was 21.6 ± 7.39 ng/mL.

Question: What about the concentration at 72 h (in vivo) of the same compound?
Answer: The concentration at 72 h was 39 ± 5.64 ng/mL.

Question: What about the concentration at 96 h (in vivo) of the same compound?
Answer: Its concentration at 96 h is 52 ± 12.9 ng/mL.

Question: And the concentration at 144 h (in vivo)?
Answer: Its concentration at 144 h is 41.9 ± 14.6 ng/mL.

Question: What about the concentration at 192 h (in vivo) of the same compound?
Answer: The concentration at 192 h was 28.7 ± 9.16 ng/mL.

Question: What about the concentration at 288 h (in vivo) of the same compound?
Answer: Its concentration at 288 h is 21 ± 12.8 ng/mL.

Question: What about the concentration at 360 h (in vivo) of the same compound?
Answer: The concentration at 360 h was 52.4 ± 15.2 ng/mL.

Question: And the concentration at 456 h (in vivo)?
Answer: The concentration at 456 h was 40.1 ± 8.44 ng/mL.

Question: What about the concentration at 528 h (in vivo) of the same compound?
Answer: The concentration at 528 h was 46.3 ± 9.31 ng/mL.

Question: What about the concentration at 624 h (in vivo) of the same compound?
Answer: The concentration at 624 h was 38.9 ± 9.35 ng/mL.

Question: And the concentration at 696 h (in vivo)?
Answer: Its concentration at 696 h is 43.7 ± 10.8 ng/mL.

Question: And the concentration at 984 h (in vivo)?
Answer: The concentration at 984 h was 24.1 ± 9.15 ng/mL.

Question: With Cc1nc2sccn2c(=O)c1CCN1CCC(=C(c2ccc(F)cc2)c2ccc(F)cc2)CC1 [ritanserin] as the compound, how does the “block of the behavioral effects of DOI” value (5HT2A receptor [6]) read?
Answer: Its value is “dose-dependently block the behavioral effects of DOI”.
